Entries after “also recorded” stand apart in the source; their conditions may differ. Positions of bridges follow the written chain, without caps; N, C: chain ends. Non-standard residues stand in square brackets, D forms with d. Residues, ends and D or L forms follow the SMILES beside them. *: point of attachment. 5FAM = O=C1OC2(c3ccc(O)cc3Oc3cc(O)ccc32)c2ccc(C(=O)*)cc21; S5 = C=CCCC[C@](C)(N)C(=O)O; Nle = CCCC[C@H](N)C(=O)O
Experiments:
E. coli MG1655 = assay: Peptide uptake in E. coli by flow cytometry; type: cell-based; details: 5 μM FAM-labeled peptide in PBS, 2 h, 37 °C, E. coli MG1655, trypan blue quench, mean ± SD
Protocol: E. coli MG1655 strain was grown in LB medium to an OD600 of around 0.5. Approximately 10^7 cells were washed once with PBS and subsequently incubated with 5 μM of the indicated 5(6)-carboxyfluorescein-labeled Phd^52–73 peptide in PBS (500 μL) for 2 h at 37 °C. Bacteria were washed twice with PBS, and trypan blue (1 mg mL^–1) in PBS was added and incubated for 10 min at RT. Bacteria were washed an additional time with PBS and resuspended in 2 mL of PBS. Flow cytometry analysis was performed using a ThermoFisher Attune NxT and a blue laser (BL1) for fluorescein excitation.

[1] = system: S. typhimurium (14028s) glmS::mCherry strain; assay: Peptide uptake in S. typhimurium by flow cytometry; type: cell-based; details: RT; for Uptake into S. typhimurium (% fluorescent cells) / Uptake into S. typhimurium (penetration efficiency): 10 μM FAM-labeled peptide; for Uptake into S. typhimurium (% fluorescent cells): 22 h; for Uptake into S. typhimurium (penetration efficiency): 4 or 22 h, M9 minimal medium
Protocol: S. typhimurium (14028s) glmS::mCherry strain was grown overnight in LB medium containing 1% glucose. The culture was then diluted to an OD600 of approximately 0.1 into 200 μL of fresh M9 minimal medium supplemented with 0.5% arabinose containing 2 or 10 μM of the indicated 5(6)-carboxyfluorescein-labeled Phd^52–73 peptide. The samples were incubated on the bench at RT for 4 or 22 h with no access to light. Bacteria were then spun down, washed with 1 mL of PBS solution, and finally resuspended in 1 mL of PBS solution for flow cytometry analysis (BD LSR II). Constitutively expressed mCherry was used to discriminate bacteria from the debris in each sample.

DocSTm toxin = details: DocSTm 5 μM, peptide 50 μM, pH 8.0; average ± SD, replicates 3-48 (Table S3)
Procedure, shortened: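 Thermal shift with 5 μM recombinant Doc toxin and 50 μM Phd peptides in 20 mM K2HPO4, 50 mM (NH4)2SO4, pH 8.0, SYPRO Orange 3×, ramped 25–95 °C. Tm from Boltzmann fit; ΔTm is peptide-bound minus free DocSTm Tm, triplicates.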

[2] = system: S. typhimurium (14028s) Δphd-doc::Km strain expressing DocSTm (pBAD33::doc); assay: Growth rescue experiments in DocSTm-expressing S. typhimurium; type: cell-based; details: three independent experiments
Protocol: S. typhimurium (14028s) Δphd-doc::Km strains carrying pCA24N (empty vector or encoding for the Phd^52–73 variant) and pBAD33::doc plasmids were grown overnight in LB medium containing 1% glucose and supplemented with 100 μg/mL carbenicillin and 34 μg/mL chloramphenicol antibiotics. Cultures were then diluted to an OD600 of approximately 0.1 into 200 μL of fresh M9 minimal medium supplemented with 0.5% arabinose, 100 μg/mL carbenicillin, 34 μg/mL chloramphenicol, and containing 2 or 10 μM of the indicated synthetic Phd^52–73 peptide. Untreated DocSTm-expressing S. typhimurium as well as S. typhimurium coexpressing Doc and Phd^52–73 peptides were included as controls in each experiment. After 2 h of incubation at RT, samples were transferred to a flat-bottom 96-well plate (Greiner), and OD600 was monitored every 15 min for 24 h at 37 °C using an Infinite M Plex plate reader (Tecan LifeScience) and orbital shaking with 1 mm amplitude. Peptides were tested in three independent experiments.

SMILES | Cellular uptake into E. coli (penetration efficiency) (E. coli MG1655) | Uptake into S. typhimurium (% fluorescent cells) [1] | Uptake into S. typhimurium (penetration efficiency) [1] | further results
CCCC[C@H](NC(=O)[C@H](Cc1c[nH]c2ccccc12)NC(=O)c1ccc2c(c1)C(=O)OC21c2ccc(O)cc2Oc2cc(O)ccc21)C(=O)N[C@@H](CC(=O)O)C(=O)N[C@@H](CC(=O)O)C(=O)N[C@@H](CCC(=O)O)C(=O)N[C@@H](Cc1ccccc1)C(=O)N[C@@H](C)C(=O)N[C@@H](C)C(=O)N[C@H](C(=O)N[C@@H](CCCC)C(=O)N[C@@H](C)C(=O)N[C@H](C(=O)N[C@@H](Cc1c[nH]cn1)C(=O)NCC(=O)N[C@@H](CC(N)=O)C(=O)N[C@@H](CCC(=O)O)C(=O)N[C@@H](CC(C)C)C(=O)N[C@@H](CCCNC(=N)N)C(=O)N[C@@H](CCC(=O)O)C(=O)N[C@@H](CC(C)C)C(=O)N[C@@H](C)C(=O)N[C@@H](CC(=O)O)C(=O)N[C@@H](CCCCN)C(=O)O)C(C)C)[C@@H](C)CC [FAM-1] (5FAM-W[Nle]DDEFAAI[Nle]AVHGNELRELADK-OH) | extremely low uptake | less than 1% | – | Uptake into S. typhimurium, in words ([1]; 2 and 10 μM FAM-labeled peptide, 4 and 22 h): very low uptake
CCCC[C@H](NC(=O)[C@H](Cc1c[nH]c2ccccc12)NC(=O)c1ccc2c(c1)C(=O)OC21c2ccc(O)cc2Oc2cc(O)ccc21)C(=O)N[C@@H](CCCNC(=N)N)C(=O)N[C@@H](CC(=O)O)C(=O)N[C@@H](CCC(=O)O)C(=O)N[C@@H](Cc1ccccc1)C(=O)N[C@@H](C)C(=O)N[C@@H](C)C(=O)N[C@H](C(=O)N[C@@H](CCCC)C(=O)N[C@@H](CCCNC(=N)N)C(=O)N[C@H](C(=O)N[C@@H](Cc1c[nH]cn1)C(=O)NCC(=O)N[C@@H](CC(N)=O)C(=O)N[C@@H](CCC(=O)O)C(=O)N[C@@H](CC(C)C)C(=O)N[C@@H](CCCNC(=N)N)C(=O)N[C@@H](CCC(=O)O)C(=O)N[C@@H](CC(C)C)C(=O)N[C@@H](C)C(=O)N[C@@H](CC(=O)O)C(=O)N[C@@H](CCCCN)C(=O)O)C(C)C)[C@@H](C)CC [FAM-16] (5FAM-W[Nle]RDEFAAI[Nle]RVHGNELRELADK-OH) | 7–14% | – | – | –
CCCC[C@H](NC(=O)[C@H](Cc1c[nH]c2ccccc12)NC(=O)c1ccc2c(c1)C(=O)OC21c2ccc(O)cc2Oc2cc(O)ccc21)C(=O)N[C@@H](CCCNC(=N)N)C(=O)N[C@@H](CC(=O)O)C(=O)N[C@@H](CCC(=O)O)C(=O)N[C@@H](Cc1ccccc1)C(=O)N[C@@H](C)C(=O)N[C@@H](C)C(=O)N[C@H](C(=O)N[C@@H](CCCC)C(=O)N[C@@H](CCCNC(=N)N)C(=O)N[C@H](C(=O)N[C@@H](Cc1c[nH]cn1)C(=O)NCC(=O)N[C@@]1(C)CCCC=CCCC[C@@](C)(C(=O)N[C@@H](CC(C)C)C(=O)N[C@@H](C)C(=O)N[C@@H](CC(=O)O)C(=O)N[C@@H](CCCCN)C(=O)O)NC(=O)[C@H](CCCNC(=N)N)NC(=O)[C@H](CC(C)C)NC(=O)[C@H](CCC(=O)O)NC1=O)C(C)C)[C@@H](C)CC [FAM-18] (5FAM-W[Nle]RDEFAAI[Nle]RVHG[S5]ELR[S5]LADK-OH; staple 15-19) | 7–14% | – | 9–30% | –
CCCC[C@H](NC(=O)[C@H](Cc1c[nH]c2ccccc12)NC(=O)c1ccc2c(c1)C(=O)OC21c2ccc(O)cc2Oc2cc(O)ccc21)C(=O)N[C@@H](CCCNC(=N)N)C(=O)N[C@@H](CC(=O)O)C(=O)N[C@@H](CCC(=O)O)C(=O)N[C@@H](Cc1ccccc1)C(=O)N[C@@H](CCCNC(=N)N)C(=O)N[C@@H](C)C(=O)N[C@H](C(=O)N[C@@H](CCCC)C(=O)N[C@@H](CCCNC(=N)N)C(=O)N[C@H](C(=O)N[C@@H](Cc1c[nH]cn1)C(=O)NCC(=O)N[C@@H](CC(N)=O)C(=O)N[C@@H](CCC(=O)O)C(=O)N[C@@H](CC(C)C)C(=O)N[C@@H](CCCNC(=N)N)C(=O)N[C@@H](CCC(=O)O)C(=O)N[C@@H](CC(C)C)C(=O)N[C@@H](C)C(=O)N[C@@H](CC(=O)O)C(=O)N[C@@H](CCCCN)C(=O)O)C(C)C)[C@@H](C)CC [FAM-19] (5FAM-W[Nle]RDEFRAI[Nle]RVHGNELRELADK-OH) | 7–14% | – | – | –
CCCC[C@H](NC(=O)[C@H](Cc1c[nH]c2ccccc12)NC(=O)c1ccc2c(c1)C(=O)OC21c2ccc(O)cc2Oc2cc(O)ccc21)C(=O)N[C@@H](CC(N)=O)C(=O)N[C@@H](CC(N)=O)C(=O)N[C@@H](CCC(=O)O)C(=O)N[C@@H](Cc1ccccc1)C(=O)N[C@@]1(C)CCCC=CCCC[C@@](C)(C(=O)N[C@H](C(=O)N[C@@H](Cc2c[nH]cn2)C(=O)NCC(=O)N[C@@H](CCCNC(=N)N)C(=O)N[C@@H](CCC(N)=O)C(=O)N[C@@H](CC(C)C)C(=O)N[C@@H](CCCNC(=N)N)C(=O)N[C@@H](CCCNC(=N)N)C(=O)N[C@@H](CC(C)C)C(=O)N[C@@H](C)C(=O)N[C@@H](CCCNC(=N)N)C(=O)N[C@@H](CCCCN)C(=O)O)C(C)C)NC(=O)[C@H](CCCC)NC(=O)[C@H]([C@@H](C)CC)NC(=O)[C@H](C)NC1=O [FAM-36] (5FAM-W[Nle]NNEF[S5]AI[Nle][S5]VHGRQLRRLARK-OH; staple 7-11) | – | more than 20% | 9–30% | –
CCCC[C@H](NC(=O)[C@H](Cc1c[nH]c2ccccc12)NC(C)=O)C(=O)N[C@@H](CC(N)=O)C(=O)N[C@@H](CC(N)=O)C(=O)N[C@@H](CCC(=O)O)C(=O)N[C@@H](Cc1ccccc1)C(=O)N[C@@]1(C)CCCC=CCCC[C@@](C)(C(=O)N[C@H](C(=O)N[C@@H](Cc2c[nH]cn2)C(=O)NCC(=O)N[C@@H](CCCNC(=N)N)C(=O)N[C@@H](CCC(N)=O)C(=O)N[C@@H](CC(C)C)C(=O)N[C@@H](CCCNC(=N)N)C(=O)N[C@@H](CCCNC(=N)N)C(=O)N[C@@H](CC(C)C)C(=O)N[C@@H](C)C(=O)N[C@@H](CCCNC(=N)N)C(=O)N[C@@H](CCCCN)C(=O)O)C(C)C)NC(=O)[C@H](CCCC)NC(=O)[C@H]([C@@H](C)CC)NC(=O)[C@H](C)NC1=O [Peptide 36] (Ac-W[Nle]NNEF[S5]AI[Nle][S5]VHGRQLRRLARK-OH; staple 7-11) | – | – | – | Average Tm of DocSTm in the presence of peptide (DocSTm toxin): 61.3 ± 1.1 °C; Growth rescue kinetics ([2]; 10 μM peptide, growth curves over 24 h at 37 °C): faster growth rescue than peptide 1; also recorded: more rapidly than 1; also recorded: faster rate than the unmodified peptide 1; Rescue from DocSTm-induced growth inhibition (OD600) ([2]; 10 μM synthetic peptide, 24 h, 37 °C, start OD600 0.1, M9 minimal medium with 0.5% arabinose): reproducibly rescued DocSTm-induced growth arrest; also recorded: growth rescue was also observed; also recorded: fully rescued
